Laboratory results as given in patent US11230526B1, “Cylcoalkenyl derivatives useful as agonists of the GPR120 and/or GPR40 receptors” (Janssen Pharmaceutica NV, priority 2018, dated 2022).

Tests used:
human GPR40 = molecular target: T1, human GPR40 (Homo sapiens, UniProt O14842); experiment: GPR40 calcium flux assay, human GPR40; assay type: cell-based; conditions: HEK293 cells stably expressing GPR40; table does not say human or rat
T1 construct: expressed in transfected cells
Protocol: Compounds were tested in a calcium flux assay using transfected HEK293 cells stably expressing either human GPR40 or rat GPR40. Human GPR40 expressing cells were cultured in DMEM−High Glucose media supplemented with 10% fetal bovine serum, 1×L-Glutamine, 1×Penicillin/Streptomycin and 500 μg/mL G418. Rat GPR40 expressing cells were cultured in DMEM−High Glucose media supplemented with 10% fetal bovine serum and 1 μg/mL puromycin. Cells were plated into poly-D-lysine coated 384-well plates and cultured overnight in a 37° C. humidified tissue culture incubator under 5% CO2/[…] atmosphere.
On the day of the experiment, the culture media was replaced with assay buffer (HBSS, 20 mM HEPES, 0.1% BSA) and the cells incubated at 37° C. for 1 h. Calcium-sensitive fluorescent dye (Fluo 8 No-Wash Calcium Dye, ABD Bioquest) was then added and the cells incubated for another 30 min at 37° C. followed by 15 min at room temperature while protected from the light. The cell plate and a plate of diluted compounds of Formula (I) were loaded into a fluorescent plate reader that added compounds onto the cells while measuring the fluorescence intensity of each well. The plate reader recorded fluorescence intensity at 1 second intervals for 8 min and provided the data for analysis in an Excel format. EC50 values were calculated using Prism (GraphPad) software.

Human GPR120 short form = molecular target: T2, Human GPR120 short form (Homo sapiens, UniProt Q5NUL3); experiment: Human GPR120 calcium flux assay, Procedure Calcium B (4200 cells/well); assay type: cell-based
T2 construct: expressed in transfected cells
T2 sequence (Q5NUL3 1-361): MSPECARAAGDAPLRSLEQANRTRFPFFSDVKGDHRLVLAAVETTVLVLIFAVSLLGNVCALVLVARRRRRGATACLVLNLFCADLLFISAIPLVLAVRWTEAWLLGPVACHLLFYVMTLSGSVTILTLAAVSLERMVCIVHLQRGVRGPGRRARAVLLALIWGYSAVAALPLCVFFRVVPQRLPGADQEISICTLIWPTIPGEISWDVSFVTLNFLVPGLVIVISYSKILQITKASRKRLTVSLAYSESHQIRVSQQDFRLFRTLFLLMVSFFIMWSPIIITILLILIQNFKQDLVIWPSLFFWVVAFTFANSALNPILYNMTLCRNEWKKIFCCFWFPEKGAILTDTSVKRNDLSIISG
Protocol: Human GPR120 in Calcium Flux Assay
These cells are first loaded with the Ca^+2 sensitive dye, Fluo-4 NW. Upon stimulation, intracellular released Ca^+2 can bind to the dye and alter its fluorescence intensity. This increase in fluorescence signal, and thus the flux in intracellular [Ca^2+], is detected and quantitated by fluorescence imaging using a FLIPR reader. The effect of the agonist is measured as a function of concentration and used to calculate an EC50 based upon a response curve.
In this procedure 4200 cells/well were employed.
A Human GPR120 clone (Genbank accession number NM_001195755.1) was placed into the pcDNA3.1 mammalian expression vector carrying the neomycin resistance gene. A stable mammalian cell was generated by placing the above clone into a HEK293 background. […] Cells were split 2 times a week to keep the cells in the log-phase growth. […]
The assay was performed on a FLIPR plate reader using the following parameters. Baseline was read for 10 seconds at 1 sec intervals. The program was set to transfer 10 μL of ligand from compound plate to cell plate after baseline reading. Aspiration was executed at: 10 μL/sec speed, 4.6 μL height, Dispensing was executed at: 30 μL/sec speed, 45 μL height. After compound addition, each well was read for 300 sec, with measurements collected at 1 sec intervals.
The kinetic data from the FLIPR was based upon a 5 minute window for data collection. The fluorescence of each sample well was used for individual calculations of a normalized RFU value, which was defined as maximum response minus the minimum response. The normalized fluorescence reading (RFU) was calculated as follows: RFU=Fmax−Fmin
The Fitting Equation was: Y=Bottom+(Top-Bottom)/(1+10^((Log EC50−X)*HillSlope)), where X is the log of the concentration and Y is the response.

T1 sequence (O14842 whole entry): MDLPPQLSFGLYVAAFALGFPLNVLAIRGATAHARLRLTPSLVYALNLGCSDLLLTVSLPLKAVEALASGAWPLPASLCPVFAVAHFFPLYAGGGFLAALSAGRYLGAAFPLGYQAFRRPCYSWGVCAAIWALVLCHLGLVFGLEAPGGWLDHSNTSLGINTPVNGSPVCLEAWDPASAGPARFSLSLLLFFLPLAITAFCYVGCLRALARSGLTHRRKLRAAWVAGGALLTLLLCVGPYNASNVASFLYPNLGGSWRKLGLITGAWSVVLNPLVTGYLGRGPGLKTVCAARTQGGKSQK

Row | Compound | EC50 (human GPR40) [µM] | EC50 (Human GPR120 short form) [µM]
1 | CCC1CCC(COc2ccc(CCC(=O)O)c(C)c2C)=C1c1ccc(Cl)cc1 (centres unmarked) [Compound 6, 3-[4-[[2-(4-chlorophenyl)-3-ethyl-cyclopenten-1-yl]methoxy]-2,3-dimethyl-phenyl]Propanoic Acid] | > 5 | > 5
2 | Cc1c(CCC(=O)O)ccc(OCC2=C(c3ccc(Cl)cc3)C(C(C)C)CC2)c1C (centres unmarked) [Compound 46, 3-[4-[[2-(4-chlorophenyl)-3-isopropyl-cyclopenten-1-yl]methoxy]-2,3-dimethyl-phenyl]Propanoic Acid] | > 5 | > 5
3 | O=C(O)CCc1ccc(OCC2=C(c3ccc(Cl)cc3)CCC2)cc1C(F)(F)C(F)(F)F [Compound 89, 3-[4-[[2-(4-chlorophenyl)cyclopenten-1-yl]methoxy]-2-(1,1,2,2,2-pentafluoroethyl)phenyl]Propanoic Acid] | – | 1.41
4 | O=C(O)CCc1cc(F)c(OCC2=C(c3ccc(Cl)cc3)CCC2)cc1C(F)(F)F [Compound 91, 3-[4-[[2-(4-chlorophenyl)cyclopenten-1-yl]methoxy]-5-fluoro-2-(trifluoromethyl)phenyl]Propanoic Acid] | > 5 | > 5
5 | Cc1cc(CCC(=O)O)c(C(F)(F)F)cc1OCC1=C(c2ccc(Cl)cc2)CCC1 [Compound 98, 3-[4-[[2-(4-chlorophenyl)cyclopenten-1-yl]methoxy]-5-methyl-2-(trifluoromethyl)phenyl]Propanoic Acid] | > 5 | 2.03
6 | O=C(O)CCc1cc(Br)c(OCC2=C(c3ccc(Cl)cc3)CCC2)c(Br)c1C(F)(F)F [Compound 101, 3-[3,5-dibromo-4-[[2-(4-chlorophenyl)cyclopenten-1-yl]methoxy]-2-(trifluoromethyl)phenyl]Propanoic Acid] | > 5 | 1.23
7 | O=C(O)CCc1ccc(OCC2=C(c3ccc(F)c(F)c3)CCC2)cc1 [Compound 103] | > 5 | > 5
8 | O=C(O)CCc1ccc(OCC2=C(c3ccc(Cl)cc3)CCC2)cc1 [Compound 107] | > 5 | > 5
9 | CCc1cc(CCC(=O)O)c(C(F)(F)F)cc1OCC1=C(c2ccc(Cl)cc2)CCC1 [Compound 142, 3-[4-[[2-(4-chlorophenyl)cyclopenten-1-yl]methoxy]-5-ethyl-2-(trifluoromethyl)phenyl]Propanoic Acid] | > 5 | –
10 | CC(Cc1cc(F)c(OCC2=C(c3ccc(Cl)cc3)CCC2)c(F)c1)C(=O)O (centres unmarked) [Compound 144, 3-[4-[[2-(4-chlorophenyl)cyclopenten-1-yl]methoxy]-3,5-difluoro-phenyl]-2-methyl-Propanoic Acid] | > 5 | –
11 | Cc1c(CCC(=O)O)ccc(OCC2=C(c3ccc(Cl)cc3)CCC2=O)c1C [Compound 145, 3-[4-[[2-(4-chlorophenyl)-5-oxo-cyclopenten-1-yl]methoxy]-2,3-dimethyl-phenyl]Propanoic Acid] | > 5 | 2
12 | CC(C)(C)c1cc(OCC2=C(c3ccc(Cl)cc3)CCC2)ccc1CCC(=O)O [Compound 168, 3-[2-tert-butyl-4-[[2-(4-chlorophenyl)cyclopenten-1-yl]methoxy]phenyl]Propanoic Acid] | – | > 5
13 | CS(=O)(=O)CCCCc1cc(CCC(=O)O)ccc1OCC1=C(c2ccc(Cl)cc2)CCC1 [Compound 181, 3-[4-[[2-(4-chlorophenyl)cyclopenten-1-yl]methoxy]-3-(4-methylsulfonylbutyl)phenyl]Propanoic Acid] | – | > 5
14 | CSCCCCc1cc(CCC(=O)O)ccc1OCC1=C(c2ccc(Cl)cc2)CCC1 [Compound 198, 3-[4-[[2-(4-chlorophenyl)cyclopenten-1-yl]methoxy]-3-(4-methylsulfanylbutyl)phenyl]Propanoic Acid] | 2.14 | 1.29
15 | O=C(O)CCc1cc(Cl)c(OCC2=C(c3ccc(F)cc3)CC(F)(F)C2)c(Cl)c1 [Compound 205, 3-[3,5-dichloro-4-[[4,4-difluoro-2-(4-fluorophenyl)cyclopenten-1-yl]methoxy]phenyl]Propanoic Acid] | > 5 | 0.465
16 | N#Cc1cc(OCC2=C(c3ccc(F)cc3)CC(F)(F)C2)ccc1CCC(=O)O [Compound 207, 3-[2-cyano-4-[[4,4-difluoro-2-(4-fluorophenyl)cyclopenten-1-yl]methoxy]phenyl]Propanoic Acid] | 1.2 | 2.1
17 | O=C(O)CCc1ccc(OCC2=C(c3ccc(Cl)cc3)CC(F)C2)cc1Cl (centres unmarked) [Compound 252, 3-[2-chloro-4-[[2-(4-chlorophenyl)-4-fluoro-cyclopenten-1-yl]methoxy]phenyl]Propanoic Acid] | – | 0.265
18 | Cc1cc(OCC2=C(c3cccc(F)c3)CCC2)c(F)cc1CCC(=O)O [Compound 305, 3-[5-fluoro-4-[[2-(3-fluorophenyl)cyclopenten-1-yl]methoxy]-2-methyl-phenyl]Propanoic Acid] | – | 0.378
19 | Cc1cccc(C2=C(COc3cc(C)c(CCC(=O)O)cc3F)CCC2)c1 [Compound 318, 3-[5-fluoro-2-methyl-4-[[2-(m-tolyl)cyclopenten-1-yl]methoxy]phenyl]Propanoic Acid] | – | 0.957
20 | N#Cc1cc(OCC2=C(C3CCCC3)CCC2)ccc1CCC(=O)O [Compound 414, 3-[2-cyano-4-[(2-cyclopentylcyclopenten-1-yl)methoxy]phenyl]Propanoic Acid] | – | 2.58
21 | O=C(O)CCc1ccc(OCC2=C(CC3CCCC3)CCC2)cc1C(F)(F)F [Compound 420, 3-[4-[[2-(cyclopentylmethyl)cyclopenten-1-yl]methoxy]-2-(trifluoromethyl)phenyl]Propanoic Acid] | – | 1.19
22 | Cc1c(CCC(=O)O)ccc(OCC2=C(CC3CCCC3)CCC2)c1C [Compound 427, 3-[4-[[2-(cyclopentylmethyl)cyclopenten-1-yl]methoxy]-2,3-dimethyl-phenyl]Propanoic Acid] | – | 0.231
23 | Cc1c(CCC(=O)O)cc(I)c(OCC2=C(c3ccc(I)cc3)CCCC2)c1C [Compound 524, 3-[5-iodo-4-[[2-(4-iodophenyl)cyclohexen-1-yl]methoxy]-2,3-dimethyl-phenyl]Propanoic Acid] | – | 1.57
24 | O=C(O)CCc1cc(F)c(OCC2=C(c3ccc(Cl)c(F)c3)CCC(F)(F)C2)c(F)c1 [Compound 528, 3-[4-[[2-(4-chloro-3-fluoro-phenyl)-5,5-difluoro-cyclohexen-1-yl]methoxy]-3,5-difluoro-phenyl]Propanoic Acid] | – | 1.07
25 | O=C(O)CCc1cc(F)c(OCC2=C(c3cncs3)CCC(F)(F)C2)c(F)c1 [Compound 549, 3-[4-[(5,5-difluoro-2-thiazol-5-yl-cyclohexen-1-yl)methoxy]-3,5-difluoro-phenyl]Propanoic Acid] | – | 1.28
26 | CS(=O)(=O)CCCCc1cc(CCC(=O)O)ccc1OCC1=C(c2ccc(Cl)cc2)CCC(F)(F)C1 [Compound 551, 3-[4-[[2-(4-chlorophenyl)-5,5-difluoro-cyclohexen-1-yl]methoxy]-3-(4-methylsulfonylbutyl)phenyl]Propanoic Acid] | – | > 5
27 | CSCCCCc1cc(CCC(=O)O)ccc1OCC1=C(c2ccc(Cl)cc2)CCC(F)(F)C1 [Compound 565, 3-[4-[[2-(4-chlorophenyl)-5,5-difluoro-cyclohexen-1-yl]methoxy]-3-(4-methylsulfanylbutyl)phenyl]Propanoic Acid] | – | 3.89
